Results on two compounds are retold here after patent US6642264B1, “Thiazolobenzoimidazole derivatives” (Yamanouchi Pharmaceutical Co., Ltd., priority 1999, dated 2003).

For one experiment, the target named is T1, mGluR1 α (Rattus norvegicus, UniProt P23385).
T1 construct: expressed in transfected cells
Put plainly: phosphatidylinositol (PI) hydrolysis system using mGluR1 α expression cells. The note with it: read-out: IC50, inhibition of the reaction of glutamic acid in PI hydrolysis system. It counts as cell-based.

A further experiment deals with T2, mGluR1 (Rattus norvegicus, UniProt P23385).
T2 construct: from tissue; host or cells: rat (Wistar) cerebellum P2 membrane fraction
In words: mGluR1 binding test with tritium-labeled ligand on rat cerebellum P2 membrane fraction. The procedure:
Rats (Wistar, males, 9 to 12 weeks of age) were decapitated to excise cerebella. After weight measurement, they were homogenized in 7 to 10 volumes of 0.32 M sucrose solution. After 15 minutes of centrifugation at 900×g, the supernatant was preserved in a container (in ice). The precipitate was again homogenized in 0.32 M sucrose solution of the same volume of the first time and centrifuged at 900×g for 15 minutes. The supernatant obtained this time was combined with the previously obtained supernatant and centrifuged at 15,000×g for 20 minutes. The precipitate was homogenized in 5 mM Tris-HCl, pH 7.4, and centrifuged at 15,000×g for 15 minutes. This step was repeated again. The precipitate was homogenized in 50 mM Tris-HCl, pH 7.4, and centrifuged at 15,000×g for 15 minutes. The precipitate was homogenized in an appropriate amount of 50 mM Tris-HCl, pH 7.4, subdivided into small portions and then preserved at −80° C.
The binding test was carried out by the following modified method of Thomsen et al.
As the assay buffer, 50 mM Tris-HCl, 2.5 mM CaCl2, pH 7.4, was used. […] Quantity of the radioactivity was measured using a liquid scintillation counter. […]

Where a name gives a salt, the structure may show the parent alone.

T2 sequence (P23385 19-1199): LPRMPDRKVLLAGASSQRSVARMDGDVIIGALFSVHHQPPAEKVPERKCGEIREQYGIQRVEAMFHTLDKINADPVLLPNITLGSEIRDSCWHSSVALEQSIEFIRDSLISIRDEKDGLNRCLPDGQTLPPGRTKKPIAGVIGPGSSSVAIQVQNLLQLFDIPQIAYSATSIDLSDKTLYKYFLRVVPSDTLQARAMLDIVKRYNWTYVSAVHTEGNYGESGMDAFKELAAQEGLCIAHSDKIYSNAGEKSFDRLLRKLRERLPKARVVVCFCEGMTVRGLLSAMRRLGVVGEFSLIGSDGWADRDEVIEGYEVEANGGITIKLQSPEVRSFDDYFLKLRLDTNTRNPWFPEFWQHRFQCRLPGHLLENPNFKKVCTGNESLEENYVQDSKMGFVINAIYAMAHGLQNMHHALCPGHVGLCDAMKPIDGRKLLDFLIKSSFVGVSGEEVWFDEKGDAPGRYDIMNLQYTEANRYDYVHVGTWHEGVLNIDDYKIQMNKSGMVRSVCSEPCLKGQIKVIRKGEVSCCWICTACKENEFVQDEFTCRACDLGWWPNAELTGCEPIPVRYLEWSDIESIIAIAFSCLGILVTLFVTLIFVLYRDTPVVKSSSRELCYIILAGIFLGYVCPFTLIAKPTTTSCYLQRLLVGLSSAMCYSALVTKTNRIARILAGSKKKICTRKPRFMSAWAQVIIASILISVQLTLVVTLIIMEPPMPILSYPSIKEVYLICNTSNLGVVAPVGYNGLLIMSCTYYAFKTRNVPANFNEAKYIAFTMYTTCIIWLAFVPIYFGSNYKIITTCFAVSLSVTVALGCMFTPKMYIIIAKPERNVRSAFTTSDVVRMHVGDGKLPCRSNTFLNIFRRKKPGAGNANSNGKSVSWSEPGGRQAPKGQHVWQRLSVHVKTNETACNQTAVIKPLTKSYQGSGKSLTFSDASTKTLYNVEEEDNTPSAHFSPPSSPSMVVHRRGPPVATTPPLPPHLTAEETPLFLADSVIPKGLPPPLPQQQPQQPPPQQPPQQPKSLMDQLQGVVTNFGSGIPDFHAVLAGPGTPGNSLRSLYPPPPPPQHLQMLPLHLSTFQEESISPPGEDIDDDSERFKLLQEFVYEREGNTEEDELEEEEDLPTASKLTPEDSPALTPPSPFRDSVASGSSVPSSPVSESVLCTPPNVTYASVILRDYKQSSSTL
T1 sequence (P23385 19-1199): as above

For `CN(C(=O)c1cn2c(nc3ccc(NC(=O)CN)cc32)s1)C1CCCCC1` [Example 41, N-Cyclohexyl-6-glycylamino-N-methylthiazolo[3,2-a]benzoimidazole-2-carboxamide dihydrochloride], at mGluR1 α, the IC50 (in general, the concentration that gives 50% inhibition) was found to be 20 nM.

As to `[3H]C([3H])([3H])N(C(=O)c1sc2nc3ccc(N)cc3n2c1C)C1CCCCC1` [[^3H]-6-Amino-N-cyclohexyl-N,3-dimethylthiazolo[3,2-a]benzoimidazole-2-carboxamide], the “Bmax in the saturation test” value at mGluR1 is 3.9 pmol/mg protein. For the same compound, the Kd on mGluR1 (room temperature, 45 minutes, read-out: KD value in the saturation test) was found to be 47 nM.
